Test results: patent publication US7781485B2, “Hsp90 family protein inhibitors” (Kyowa Hakko Kirin Co., Ltd., priority 2004, dated 2010)

tested on: human mammary cancer-derived KPL-4 cells; experiment: Growth inhibition test on human mammary cancer-derived KPL-4 cells (WST-1); type: cell-based; settings: KPL4, 72 hours culture, read-out: 50% growth inhibitory concentration (GI50)
Experimental: Two thousand cells of human mammary cancer-derived KPL-4 cells were inoculated into each well of a 96-well microplate (manufactured by Nunc Corp.), and using Dulbecco's Modified Eagle's Medium (DMEM) (culture medium) containing 10% fetal calf serum (FCS), preculturing was performed in a 5% carbon dioxide incubator at 37° C. for 24 hours. A dimethyl sulfoxide (DMSO) solution of each test compound prepared in a concentration of 10 mmol/L was diluted with the culture medium step-by-step to a final concentration of […], and the diluted solution was added to each well. The individual wells were further cultured in the 5% carbon dioxide incubator at 37° C. for 72 hours. After completion of the culturing, 20 μL of WST-1 {4-[3-(4-Iodophenyl)-2-(4-nitrophenyl)-2H-5-tetrazolio]-1,3-benzene disulfonate} reagent mixture (manufactured by Roche Diagnostic Corp.) diluted to twice its original amount by culture medium was added to each well, and culturing was performed in the 5% carbon dioxide incubator at 37° C. for 1 hour. Using a microplate spectrophotometer (Model 550; manufactured by Bio-Rad), the absorbance of each well was measured at 450 nm and 655 nm. The cell growth inhibitory activity was expressed as 50% growth inhibitory concentration (GI50). The method for calculating the GI50 value is as follows. A value obtained by subtracting the absorbance at 655 nm from the absorbance at 450 nm (absorbance difference) was calculated for each well. The absorbance difference obtained for cells not treated with a test compound was designated as 100%, which was compared with the absorbance difference obtained for cells treated with each compound at various test concentrations, and thus the compound concentration at which cell growth was inhibited by 50% was calculated to determine the GI50 value.

| GI50 [µM] | Compound |
| --- | --- |
| ≤ 50 | O=C(NCCc1ccccc1)c1c(O)cc(O)cc1COCc1ccccc1 [Compound 3, 2-(Benzyloxymethyl)-4,6-dihydroxy-N-phenethylbenzamide] |
| ≤ 50 | COC(=O)c1c(O)cc(O)c(Br)c1COCc1ccccc1 [Compound 10, 2-(Benzyloxymethyl)-3-bromo-4,6-dihydroxybenzoic acid methyl ester] |
| ≤ 50 | CCc1c(O)cc(O)c(C(=O)N2CCOCC2)c1CC(=O)OC [Compound 14, [2-Ethyl-3,5-dihydroxy-6-(morpholinocarbonyl)phenyl]acetic acid methyl ester] |
| ≤ 50 | CCCN(C)C(=O)c1c(O)cc(O)c(CC)c1CC(=O)OC [Compound 15, [2-Ethyl-3,5-dihydroxy-6-(N-methyl-N-propylcarbamoyl)phenyl]acetic acid methyl ester] |
| ≤ 50 | CCc1c(O)cc(O)c(C(=O)N(C)CCOC)c1CC(=O)OC [Compound 16, {2-Ethyl-3,5-dihydroxy-6-[N-(2-methoxyethyl)-N-methylcarbamoyl]phenyl}acetic acid methyl ester] |
| ≤ 50 | CCc1c(O)cc(O)c(C(=O)N2CCCCC2)c1CC(=O)OC [Compound 17, [2-Ethyl-3,5-dihydroxy-6-(piperidinocarbonyl)phenyl]acetic acid methyl ester] |
| ≤ 50 | CCc1c(O)cc(O)c(C(=O)N2CCN(C)CC2)c1CC(=O)OC [Compound 18, [2-Ethyl-3,5-dihydroxy-6-(4-methylpiperazin-1-ylcarbonyl)phenyl]acetic acid methyl ester] |
| ≤ 50 | CCc1c(O)cc(O)c(C(=O)NCc2ccccc2)c1CCO [Compound 19, N-benzyl-3-ethyl-4,6-dihydroxy-2-(2-hydroxyethyl)benzamide] |
| ≤ 50 | CCc1c(O)cc(O)c(C(=O)OC)c1CC(=O)OC [Compound 23, 3-Ethyl-4,6-dihydroxy-2-(methoxycarbonylmethyl)benzoic acid methyl ester] |

| Compound | GI50 [µM] |
| --- | --- |
| O=C(Nc1ccccc1)c1c(O)cc(O)cc1COCc1ccccc1 [Compound 1, 2-(Benzyloxymethyl)-4,6-dihydroxy-N-phenylbenzamide] | ≤ 50 |
| O=C(NCc1ccccc1)c1c(O)cc(O)cc1COCc1ccccc1 [Compound 2, N-benzyl-2-(benzyloxymethyl)-4,6-dihydroxybenzamide] | ≤ 50 |
| O=C(NCc1ccccn1)c1c(O)cc(O)c(Cl)c1COCc1ccccc1 [Compound 9, 2-(Benzyloxymethyl)-3-chloro-4,6-dihydroxy-N-(pyridin-2-ylmethyl)benzamide] | ≤ 50 |
